Where two headings read alike, the source gives them in different places. Some results are limits rather than exact numbers.

As a reminder, the IC50 is the concentration at which inhibition is half-maximal.

Experiment [1] relates to reuptake of norepinephrine, serotonin, and dopamine. The note with it: cited from earlier work.
Experiment [2] addresses serotonin (5-HT) transporter (Rattus norvegicus, UniProt P31652). The experiment is described as follows: Inhibition of [3H]5-HT uptake in rat whole brain synaptosomes. The experiment is classed as biochemical. The protocol: (§1) The effects of 1-aryl-3-azabicyclo[3.1.0]hexanes of the invention for inhibiting transport of norepinephrine (NE) and/or dopamine (DA) and/or serotonin (5-HT) were evaluated using preparations of synaptosomes from different regions of the rat brain according to previously-reported techniques (Perovic and Muller, 1995, Janowsky et al., 1986). The subject assay methods are art-accepted models for generally assessing and predicting activities of drugs that modulate biogenic amine transport in mammals.
(§2) Whole brains were obtained from normal rats, and synaptosomal preparations were made from either whole brain (5-HT), striatum (DA) or hypothalamus (NE) by gentle disruption in 10 volumes (w/v) of 0.32 M sucrose (0-4° C.) using a Teflon-glass homogenizer. The homogenate was then centrifuged at 1000×g for 10 min. The supernatant was retained and centrifuged at 23000 g for 20 min. The resulting pellet was gently resuspended in 200 volumes of 0.32 M sucrose (0-4° C.) using a teflon-glass homogenizer. Aliquots (250 μL) of this preparation were added to tubes, along with 0.2 μCi/mL of [^3H]5-HT, [^3H]DA, or [^3H]NE, 200 μL of selected 1-aryl-3-azabicyclo[3.1.0]hexane test compounds (to yield final concentrations of 100 nM, 300 nM, 1 μM, 3 μM, 10 μM, 30 μM or 100 μM) and 1 mL of Krebs-Ringer bicarbonate buffer (pH 7.4). The mixtures were incubated for either 15 (DA and 5-HT uptake) or 20 (NE uptake) minutes at 37° C. At the end of this period, the assay was terminated by rapid filtration over Whatman GF/C glass fiber filters. The filters were rinsed 3 times with 4 ml of Krebs-Ringer bicarbonate buffer (0-4° C.), and the radioactivity retained on the filters was measured by liquid scintillation spectrometry. The results of these assays are shown in Table 3, below, which indicates, for each of the exemplary, aza-substituted compounds, the structure of the substituent, and levels of observed uptake inhibition for each of the indicated neurotransmitters. Also provided in the table is a multi-target “inhibition profile”, expressing a ratio of observed inhibition for each of the aza-substituted bicifadine across a panel of the three indicated neurotransmitters.

Experiment [3] has as its target dopamine (DA) transporter (Rattus norvegicus, UniProt P23977). The experiment is described as follows: Inhibition of [3H]DA uptake in rat striatum synaptosomes. The experiment is classed as biochemical. The protocol: as §1, §2
In experiment [4] the target is norepinephrine (NE) transporter (Rattus norvegicus, UniProt Q9WTR4). The experiment can be described thus: Inhibition of [3H]NE uptake in rat hypothalamus synaptosomes. The class given is biochemical. The protocol:
as §1, §2

The conditions of experiment [5]: orally administered single dose; 150 mg bicifadine, 650 mg aspirin; cited from earlier work.
For experiment [6] the following is noted: dental surgery patients; cited from earlier work.
The mark [7] stands for this setting: rat whole brain synaptosomes, [3H]5-HT, 15 min, 37° C., read-out: Inhibition of 5-HT Uptake (IC50).
[8] abbreviates: rat striatum synaptosomes, [3H]DA, 15 min, 37° C., read-out: Inhibition of DA Uptake (IC50).
[9] abbreviates: rat hypothalamus synaptosomes, [3H]NE, 20 min, 37° C., read-out: Inhibition of NE Uptake (IC50).

Chain of norepinephrine (NE) transporter (Q9WTR4 1-597): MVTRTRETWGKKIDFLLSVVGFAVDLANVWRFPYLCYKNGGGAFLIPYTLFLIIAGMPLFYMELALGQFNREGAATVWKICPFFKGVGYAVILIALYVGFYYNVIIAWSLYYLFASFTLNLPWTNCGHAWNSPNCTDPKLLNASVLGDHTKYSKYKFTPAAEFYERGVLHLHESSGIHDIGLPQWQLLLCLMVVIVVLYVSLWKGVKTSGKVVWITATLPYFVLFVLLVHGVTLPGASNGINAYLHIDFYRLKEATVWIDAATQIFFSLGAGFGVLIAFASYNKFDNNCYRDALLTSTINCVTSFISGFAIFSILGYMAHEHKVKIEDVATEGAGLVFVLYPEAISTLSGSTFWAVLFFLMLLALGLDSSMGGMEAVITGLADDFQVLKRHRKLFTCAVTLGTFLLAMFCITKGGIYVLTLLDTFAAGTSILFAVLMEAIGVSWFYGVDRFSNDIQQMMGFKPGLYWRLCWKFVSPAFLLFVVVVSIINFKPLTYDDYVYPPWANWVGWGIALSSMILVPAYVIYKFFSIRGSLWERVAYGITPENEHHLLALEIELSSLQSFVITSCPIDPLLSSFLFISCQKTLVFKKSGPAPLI
Chain of dopamine (DA) transporter (P23977 whole entry): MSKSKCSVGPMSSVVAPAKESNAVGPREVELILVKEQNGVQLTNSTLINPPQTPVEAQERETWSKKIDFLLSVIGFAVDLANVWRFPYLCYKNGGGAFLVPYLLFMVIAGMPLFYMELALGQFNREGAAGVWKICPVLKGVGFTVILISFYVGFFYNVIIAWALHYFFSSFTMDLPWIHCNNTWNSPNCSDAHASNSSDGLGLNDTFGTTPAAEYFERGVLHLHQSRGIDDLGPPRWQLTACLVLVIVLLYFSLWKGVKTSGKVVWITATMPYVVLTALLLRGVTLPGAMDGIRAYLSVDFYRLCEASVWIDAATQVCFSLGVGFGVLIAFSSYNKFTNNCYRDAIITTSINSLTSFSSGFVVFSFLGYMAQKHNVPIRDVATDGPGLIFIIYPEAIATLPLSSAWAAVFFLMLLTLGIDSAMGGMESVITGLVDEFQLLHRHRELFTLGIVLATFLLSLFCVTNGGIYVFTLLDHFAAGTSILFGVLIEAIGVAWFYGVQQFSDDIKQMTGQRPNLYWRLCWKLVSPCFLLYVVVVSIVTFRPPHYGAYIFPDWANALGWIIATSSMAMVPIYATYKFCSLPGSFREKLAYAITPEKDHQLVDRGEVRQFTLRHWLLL
Chain of serotonin (5-HT) transporter (P31652 whole entry): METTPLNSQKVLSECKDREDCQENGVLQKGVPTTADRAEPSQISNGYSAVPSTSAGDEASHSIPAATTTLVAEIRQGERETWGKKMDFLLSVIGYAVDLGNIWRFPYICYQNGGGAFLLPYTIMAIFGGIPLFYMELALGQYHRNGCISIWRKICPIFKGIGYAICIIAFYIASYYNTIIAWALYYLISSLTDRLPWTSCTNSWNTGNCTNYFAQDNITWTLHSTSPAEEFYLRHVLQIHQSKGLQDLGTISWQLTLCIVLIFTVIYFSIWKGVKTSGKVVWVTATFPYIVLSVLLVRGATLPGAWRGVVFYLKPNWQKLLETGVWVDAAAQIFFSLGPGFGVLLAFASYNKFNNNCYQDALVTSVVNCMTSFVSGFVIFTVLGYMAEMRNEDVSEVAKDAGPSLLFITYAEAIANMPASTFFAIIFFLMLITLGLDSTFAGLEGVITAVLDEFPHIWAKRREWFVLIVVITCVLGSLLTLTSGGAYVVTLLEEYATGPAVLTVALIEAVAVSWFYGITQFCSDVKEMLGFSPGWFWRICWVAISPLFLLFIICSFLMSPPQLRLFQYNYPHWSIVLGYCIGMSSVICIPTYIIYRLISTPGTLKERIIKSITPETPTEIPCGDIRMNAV

Consider `Cl.Clc1ccc(C23CNCC2C3)cc1Cl` (stereo not shown) [1-(3,4-dichlorophenyl)-3-azabicyclo[3.1.0]hexane hydrochloride], for which, in experiment [1], the “inhibition of reuptake of norepinephrine, serotonin, and dopamine” value is given as “inhibit reuptake of all three of these biogenic amines”.
On to `Cc1ccc(C23CC2CN(CC(F)(F)F)C3)cc1` (stereo not shown) [C2H2F3,4-CH3], for which the IC50 was found to be 25000 nM in experiment [2] (setting [7]) and 48000 nM in experiment [3] (setting [8]).
Consider `CCN1CC2CC2(c2ccc(C)cc2)C1` (stereo not shown) [C2H5,4-CH3, 3-Ethyl-1-p-tolyl-3-aza-bicyclo[3.1.0]hexane], for which the IC50 in experiment [4] is less than 100 nM; in experiment [2], 240 nM; in experiment [3] it was less than 100 nM.
Take `COCCN1CC2CC2(c2ccc(C)cc2)C1` (stereo not shown) [C3H7O, 4-CH3, 3-(2-Methoxyethyl)-1-p-tolyl-3-aza-bicyclo[3.1.0]hexane]: the IC50 is 6500 nM in experiment [4] (setting [9]), 8000 nM in experiment [2] (setting [7]) and 10000 nM in experiment [3] (setting [8]).
In the case of `CN1CC2CC2(c2cccc(Cl)c2)C1` (stereo not shown) [CH3,3-Cl, 1-(3-Chlorophenyl)-3-methyl-3-aza-bicyclo[3.1.0]hexane], the IC50 in experiment [4] was 83 nM; in experiment [2], 270 nM; in experiment [3], 1300 nM.
For `CN1CC2CC2(c2ccc(C(F)(F)F)cc2)C1` (stereo not shown) [CH3,4-CF3, 3-Methyl-1-(4-trifluoromethylphenyl)-3-aza-bicyclo[3.1.0]hexane], the IC50 in experiment [4] (setting [9]) turned out to be 2600 nM; in experiment [2] (setting [7]) it was 130 nM.
Take `CN1CC2CC2(c2ccc(CN)cc2)C1` (stereo not shown) [CH3,4-CH2NH2, (4-(3-Methyl-3-aza-bicyclo[3.1.0]hexan-1-yl)phenyl)methanamine]: the IC50 in experiment [2] (setting [7]) worked out at 7400 nM; in experiment [3] (setting [8]), 8500 nM.
For `Cc1ccc(C23CC2CN(C)C3)cc1` (stereo not shown) [CH3,4-CH3, 3-Methyl-1-p-tolyl-3-aza-bicyclo[3.1.0]hexane], the IC50 in experiment [4] turned out to be 150 nM; in experiment [2], 190 nM; in experiment [3], 960 nM.
As for `CN1CC2CC2(c2ccc(F)cc2)C1` (stereo not shown) [CH3,4-F, 1-(4-Fluorophenyl)-3-methyl-3-aza-bicyclo[3.1.0]hexane], the IC50 was found to be 170 nM in experiment [4], 3400 nM in experiment [2] and 3800 nM in experiment [3].
In the case of `CC(=O)Oc1ccccc1C(=O)O` [aspirin], the “analgesic activity compared to placebo” value in experiment [5] was “Significant analgesic activity”.
Turning to `Cc1ccc(C23CNCC2C3)cc1.Cl` (stereo not shown) [bicifadine, 1-p-Tolyl-3-aza-bicyclo[3.1.0]hexane hydrochloride, reference compound], the IC50 is 130 nM in experiment [4] (setting [9]), 130 nM in experiment [2] (setting [7]) and 1300 nM in experiment [3] (setting [8]). For the same molecule, in experiment [5], the “analgesic activity compared to placebo” value is given as “Significant analgesic activity”. Moreover, the “analgesia relative to codeine and tramadol” value in experiment [6] was “analgesia comparable to the narcotic, codeine and the narcotic-like agent tramadol”.
On to `Cc1ccc(C23CC2CN(C(C)C)C3)cc1` (stereo not shown) [i-C3H7,4-CH3, 3-Isopropyl-1-p-tolyl-3-aza-bicyclo[3.1.0]hexane], for which the 50% inhibitory concentration (IC50) was determined as 230 nM in experiment [4] (setting [9]), 170 nM in experiment [2] (setting [7]) and 610 nM in experiment [3] (setting [8]).
For the molecule `CCCN1CC2CC2(c2ccc(C)cc2)C1` (stereo not shown) [n-C3H7,4-CH3, 3-Propyl-1-p-tolyl-3-aza-bicyclo[3.1.0]hexane], the half-inhibitory concentration (IC50) in experiment [4] (setting [9]) came out at 1400 nM; in experiment [2] (setting [7]), 760 nM; in experiment [3] (setting [8]) it was 2700 nM.
Regarding `Cc1ccc(C23CC2CN(C(C)(C)C)C3)cc1` (stereo not shown) [t-C4H9,4-CH3], the results for the half-maximal inhibitory concentration (IC50) in experiment [4] (setting [9]), in experiment [2] (setting [7]) and in experiment [3] (setting [8]) were 2700 nM, 7600 nM and 7300 nM, respectively.

Source of the values: patent publication US20060223875A1, “Methods and compositions for production, formulation and use of 1-aryl-3-azabicyclo[3.1.0]hexanes” (priority 2005, published 2006).
